Holding throughout (assay): DTP human tumour cell line panel, 48 h
For experiment [1], the system named is MALME-3M melanoma.
In experiment [2] the test system is NCI-H460 lung.
For experiment [3], the system named is PC-3 prostate.
For experiment [4], the system named is RPMI-8226 leukemia.
Experiment [5] relates to T-47D breast.
The subject of experiment [6] is TK-10 renal.
The test system of experiment [7] is ACHN renal.
Experiment [8] concerns UO-31 renal.
Experiment [9] has as its system KM12 colon.
Experiment [10] concerns DU-145 prostate.
In experiment [11] the test system is NCI-H522 lung.
Experiment [12] has as its system OVCAR-5 ovarian.
The test system of experiment [13] is MCF7 breast.
Experiment [14] deals with UACC-62 melanoma.
Experiment [15] concerns EKVX NSCLC.
For experiment [16], the system named is SF-539 CNS.
Experiment [17] relates to MDA-N.
Experiment [18] deals with MDA-MB-231 breast.

Structures are written as SMILES.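 Each compound was tested at five concentrations against cells in 96-well plates for 48 hours. TGI is the concentration that stops growth completely.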

Take `CO/C(=C/C(=O)C(Cl)(Cl)Cl)CC/C(=C\C(=O)C(Cl)(Cl)Cl)OC`: the TGI in experiment [1] came to 66.4 µM; in [2] it was 99.3 µM; in experiment [3], 87.7 µM; in experiment [4] it was 70.9 µM; in experiment [5] it was 72.5 µM; in experiment [6], 73.2 µM. Further, the TGI was 65.2 µM in experiment [7]; 43.4 µM in experiment [8]; 98.9 µM in [9]; 56.7 µM in experiment [10]; 57.5 µM in experiment [11]; above 100 µM in experiment [12]. The TGI in experiment [13] was 79.8 µM; in [14], 46.8 µM; in [15], 59.7 µM; in experiment [16] it was 63.2 µM; in [17], 66 µM; in experiment [18], above 100 µM.

For the molecule `COC(=O)[C@@]1(Cc2ccc(O)cc2)C[C@@H]2Cc3ccccc3N2N1`, the concentration for total growth inhibition (TGI) in [1], in experiment [3], in experiment [4], in experiment [5], in experiment [6] and in [7] was above 100 µM throughout. For the same molecule, the TGI in [8], in experiment [9], in experiment [10], in experiment [11], in experiment [12] and in [13] was above 100 µM in each case. Further, the TGI in experiment [14], in [15], in experiment [16], in [17] and in experiment [18] was above 100 µM each time.

As for `C=CCc1cc(C=C(C#N)C#N)cc(OC)c1O`, the TGI in experiment [1], in [2], in [3], in experiment [4], in [5] and in experiment [6] was above 100 µM in each case. The TGI in experiment [7], in [8], in [9], in experiment [10], in experiment [11] and in experiment [12] was above 100 µM throughout. The TGI in [13], in experiment [14], in [15], in experiment [16], in experiment [17] and in [18] was above 100 µM each time.

As to `c1ccc(-c2nnc(SCc3c[nH]c4ccccc34)n2-c2ccccc2)cc1`, the TGI is above 100 µM in [1]; above 100 µM in [2]; 93.9 µM in [3]; above 100 µM in experiment [4]; above 100 µM in [5]; 64.1 µM in experiment [6]. For the same molecule, the TGI in experiment [7], in [8], in experiment [9], in experiment [10], in experiment [11] and in experiment [12] was above 100 µM each time. The concentration for total growth inhibition (TGI) is above 100 µM in [13]; 66.7 µM in experiment [14]; above 100 µM in [15]; 70.3 µM in experiment [16]; above 100 µM in experiment [17]; above 100 µM in [18].

For the molecule `CCCCCCCNC(P(=O)(O)O)P(=O)(O)O`, the TGI in [1], in experiment [2], in [3], in experiment [4], in [5] and in experiment [6] was above 100 µM throughout. Further, the TGI in [7], in experiment [8], in experiment [9], in experiment [10], in [11] and in experiment [12] was above 100 µM throughout. Also, the TGI in experiment [13], in experiment [14], in [15], in [16], in experiment [17] and in experiment [18] was above 100 µM throughout.

Regarding `CSc1c(C(=O)Nc2ccc(C)cc2)c(N)n(N)c(=O)c1C#N`, the TGI in experiment [1], in [2], in experiment [3], in [4], in [5] and in [6] was above 100 µM throughout. Further, the total growth inhibition concentration (TGI) in [8], in [9], in experiment [10], in [11], in [12] and in [13] was above 100 µM in each case. The TGI in experiment [14], in [15], in experiment [16], in experiment [17] and in experiment [18] was above 100 µM each time.

For `COC(=O)c1ccc(NCc2c(O)ccc(O)c2Br)cc1Cl`, the TGI in experiment [1] is 33.2 µM; in [2] it was 41.9 µM; in experiment [3], 44 µM; in [4], above 100 µM; in experiment [5], 43.3 µM; in experiment [7] it was 30.6 µM. Further, the TGI in experiment [8] turned out to be 29.8 µM; in experiment [9] it was 31 µM; in experiment [10], 30.4 µM; in experiment [11] it was 3.51 µM; in [12], 28.6 µM; in [13], 32.2 µM. For the same molecule, the TGI in experiment [14] was determined as 30.3 µM; in experiment [15] it was 28.5 µM; in experiment [16], 30.4 µM; in experiment [17] it was 26 µM; in [18] it was 29.4 µM.

Regarding `O=c1cc(N2CCCC2)[nH]c(=O)n1-c1ccc(F)cc1`, the TGI in experiment [1], in experiment [2], in [3], in experiment [4], in experiment [5] and in experiment [6] was above 100 µM throughout. The TGI in experiment [7], in [9], in [10], in experiment [11], in experiment [12] and in experiment [13] was above 100 µM each time. The TGI in experiment [14], in experiment [15], in experiment [16], in [17] and in [18] was above 100 µM each time.

As to `COC(=O)C(Cc1ccccc1)NP(=O)(O)OCC1OC(n2cc(I)c(=O)[nH]c2=O)CC1O` (stereo unspecified), the TGI in experiment [1], in [2], in experiment [3], in experiment [4], in experiment [5] and in experiment [6] was above 100 µM each time. For the same molecule, the TGI in experiment [7], in experiment [8], in experiment [9], in [10], in [11] and in experiment [13] was above 100 µM each time. Also, the TGI in [14], in [15], in experiment [16], in experiment [17] and in [18] was above 100 µM in each case.

Regarding `COc1c2c(cc3c1OCO3)C13C=CC(OC)CC1N(CC3)C2` (stereo unspecified), the TGI in [1], in experiment [3], in experiment [4], in [5], in experiment [6] and in experiment [7] was above 100 µM each time. Moreover, the TGI in experiment [8], in experiment [9], in experiment [10], in experiment [11], in experiment [12] and in experiment [13] was above 100 µM in each case. Besides, the TGI in experiment [14], in experiment [15], in [16], in [17] and in [18] was above 100 µM in each case.

Take `CC(C)OP(=O)(OC(C)C)c1ccc2c(c1)OCCOCCOCCOCCO2`: the TGI in [1], in experiment [2], in [3], in experiment [4], in experiment [5] and in experiment [6] was above 100 µM throughout. For the same molecule, the TGI in experiment [7], in experiment [8], in experiment [9], in experiment [10], in experiment [11] and in experiment [13] was above 100 µM each time. Further, the concentration for total growth inhibition (TGI) in experiment [14], in experiment [15], in experiment [16], in experiment [17] and in experiment [18] was above 100 µM in each case.

As to `COc1cccc(C2ON=C(c3ccccc3)N2C23CC4CC(CC(C4)C2)C3)c1` (stereo unspecified), the TGI in [1], in [2], in experiment [3], in experiment [4], in [5] and in experiment [6] was above 10 µM throughout. The TGI in experiment [7], in [9], in [10], in experiment [11], in [12] and in experiment [13] was above 10 µM throughout. For the same molecule, the TGI in experiment [14], in experiment [15], in [16], in [17] and in experiment [18] was above 10 µM each time.

For the molecule `Cc1ccc(C2SCC(=O)N2c2ccc(-c3ccc(-n4c(-c5ccccc5)nc5ccccc5c4=O)cc3)cc2)cc1` (stereo unspecified), the TGI in experiment [1], in experiment [2], in experiment [3], in experiment [4], in experiment [5] and in [6] was above 100 µM throughout. Moreover, the TGI in experiment [7], in [8], in experiment [9], in experiment [10], in [11] and in experiment [12] was above 100 µM throughout. In addition, the TGI in experiment [13], in experiment [14], in experiment [15], in experiment [17] and in [18] was above 100 µM in each case.

As for `CCOC(=O)C1C(c2ccc(O)c(OC)c2)c2c([nH][nH]c2=O)CC1(C)O` (stereo unspecified), the TGI in experiment [1], in experiment [3], in [4], in experiment [5], in experiment [6] and in experiment [7] was above 100 µM in each case. Also, the TGI in experiment [8], in experiment [9], in experiment [10], in [11], in experiment [12] and in experiment [13] was above 100 µM each time. For the same molecule, the TGI in experiment [14], in [15], in [16], in experiment [17] and in experiment [18] was above 100 µM throughout.

Take `COC1(OC)N=C(N)C2(C#N)C3(C(=O)N(C(C)C)N=C3C)C12C#N` (stereo unspecified): the TGI in experiment [1], in [2], in experiment [3], in [4], in [5] and in experiment [7] was above 100 µM throughout. The TGI in experiment [8], in experiment [9], in experiment [10], in experiment [11], in experiment [12] and in [13] was above 100 µM in each case. In addition, the TGI in experiment [14], in experiment [15], in experiment [16], in experiment [17] and in experiment [18] was above 100 µM each time.

As to `O=c1c2ccccc2nc2n1C(c1ccc([N+](=O)[O-])cc1)C2(c1ccccc1)c1ccccc1` (stereo unspecified), the TGI in experiment [1], in experiment [2], in experiment [3], in [4], in experiment [5] and in [6] was above 100 µM each time. Moreover, the TGI in experiment [7], in experiment [9], in experiment [10], in experiment [11], in experiment [12] and in experiment [13] was above 100 µM each time. For the same molecule, the TGI in experiment [14], in experiment [15], in experiment [16], in [17] and in experiment [18] was above 100 µM each time.

The record behind these values is PubChem BioAssay (NCI).
